One experiment has as its system velvetleaf. Put plainly: Preemergent control of plant species. The format is in vivo, Abutilon theophrasti. To be noted: Abutilon theophrasti, pre-emergence, 336 h; 0.25 lb/acre; read-out: percent preemergent control. The method, then:
(§1) The seeds of various species of plants were planted in beds of good agricultural soil in a greenhouse. A number of compositions of the present invention, generally in the nature of an aqueous emulsion, were applied at rates listed in the table so as to deposit a predetermined amount of active ingredients uniformly throughout the surface of the bed. Another seed bed was treated only with water to serve as a control. After treatment the seed beds were maintained for two weeks under greenhouse conditions conducive for good plant growth and watered as necessary. Control refers to the reduction in growth compared to the observed results of the same untreated species.

The subject of another experiment is corn. Put plainly: Preemergent control of plant species. To be noted: Zea mays, pre-emergence, 336 h; 0.25 lb/acre; read-out: percent preemergent control. The format is in vivo, Zea mays. The method, then: as §1
Another experiment has as its system rice. Put plainly: Preemergent control of plant species. The format is in vivo, Oryza sativa. As to conditions: Oryza sativa, pre-emergence, 336 h; 0.25 lb/acre; read-out: percent preemergent control. The method, then:
as §1

For a further experiment, the system named is barnyardgrass. Put plainly: Preemergent control of plant species. The format is in vivo, Echinochloa crusgalli. As to conditions: Echinochloa crus-galli, pre-emergence, 336 h; 0.25 lb/acre; read-out: percent preemergent control. The method, then:
as §1

Another experiment concerns yellow nutsedge. Put plainly: Preemergent control of plant species. The format is in vivo, Cyperus esculentus. As to conditions: Cyperus, pre-emergence, 336 h; 0.25 lb/acre; read-out: percent preemergent control. The method, then:
as §1

In the next experiment the test system is annual morning glory. Put plainly: Preemergent control of plant species. The format is in vivo, Ipomoea spp. As to conditions: Ipomoea, pre-emergence, 336 h; 0.25 lb/acre; read-out: percent preemergent control. The method, then:
as §1

The test system of a further experiment is yellow foxtail. Briefly: Preemergent control of plant species. The format is in vivo, Setaria lutescens. As to conditions: Setaria, pre-emergence, 336 h; 0.25 lb/acre; read-out: percent preemergent control. Here is the method: as §1
For the next experiment, the system named is wheat. Briefly: Preemergent control of plant species. The format is in vivo, Triticum aestivum. To be noted: Triticum aestivum, pre-emergence, 336 h; 0.25 lb/acre; read-out: percent preemergent control. Here is the method: as §1
The subject of a further experiment is sugar beet. Put plainly: Preemergent control of plant species. The format is in vivo, Beta saccharifera. To be noted: Beta vulgaris, pre-emergence, 336 h; 0.25 lb/acre; read-out: percent preemergent control. The method, then:
as §1

The test system of the next experiment is sorghum. Put plainly: Preemergent control of plant species. The format is in vivo, Sorghum vulgare. To be noted: Sorghum, pre-emergence, 336 h; 0.25 lb/acre; read-out: percent preemergent control. Here is the method:
as §1

The subject of the next experiment is jimsonweed. Briefly: Preemergent control of plant species. The format is in vivo, Datura stramonium. As to conditions: Datura stramonium, pre-emergence, 336 h; 0.25 lb/acre; read-out: percent preemergent control. The method, then:
as §1

The next experiment relates to johnson grass. Briefly: Preemergent control of plant species. The format is in vivo, Sorghum halepense. To be noted: Sorghum halepense, pre-emergence, 336 h; 0.25 lb/acre; read-out: percent preemergent control. Here is the method:
as §1

Another experiment has as its system soybean. Put plainly: Preemergent control of plant species. The format is in vivo, Glycine max. To be noted: Glycine max, pre-emergence, 336 h; 0.25 lb/acre; read-out: percent preemergent control. The method, then: as §1
For a further experiment, the system named is cotton. Briefly: Preemergent control of plant species. As to conditions: Gossypium hirsutum, pre-emergence, 336 h; 0.25 lb/acre; read-out: percent preemergent control. The format is in vivo, Gossypium spp. The method, then:
as §1

Experiment [1] deals with nitrification of ammonium nitrogen. Briefly: Suppression of nitrification of ammonium nitrogen in soil. As to conditions: 27° C. The method, then:
A sufficient volume of water was added to 20 g of the soil in a wide-mouth, screw-cap, 4-ounce, glass bottle, such that the moisture content of the mixture was made equal to the 1/3 bar tension value for that soil. The mixture was thoroughly mixed before sealing. […] Acetone slows the rate of soil nitrification and its concentration must be carefully controlled. Single samples of each test chemical were incubated for two weeks at 27° C.
The experiment comprised the following types of samples:
The soil samples were analyzed as follows: Sufficient ammonium sulfate extracting solution was added to the sample, such that the total volume of added water was 50 ml (included water added during sample preparation). The capped mixture was shaken 10 minutes to solubilize nitrate and the soil particulates were allowed to settle. The nitrate concentration in the water phase was determined with a nitrate-specific ion electrode such as Orion Model 93-07.
The non-nitrate nitrogen remaining (% NH4 -N remaining) in the soil after two weeks (performance value) was calculated as follows: [formula]

As to `Cc1cn2nc(S(=O)(=O)Nc3c(Cl)cccc3Cl)nc2nc1N(C)C` [Compound 237], the pest or weed control at 280.212 g/ha in the experiment with velvetleaf was determined as 0%; with barnyardgrass, 10%; in the experiment on yellow nutsedge, 30%; with annual morning glory, 20%; in the experiment on yellow foxtail, 30%; in the experiment with jimsonweed it was 10%. For the same molecule, the pest or weed control at 280.212 g/ha in the experiment with johnson grass came to 10%. Besides, the plant injury at 280.212 g/ha in the experiment with corn turned out to be 20%; in the experiment on rice, 20%; in the experiment with wheat, 100%; in the experiment on sugar beet it was 50%; in the experiment with sorghum it was 20%; in the experiment with soybean it was 40%. In the experiment with cotton, the plant injury at 280.212 g/ha was 50%.
On to `COc1ccc(F)c(NS(=O)(=O)c2nc3nc(C)ccn3n2)c1F` [Compound 172], for which the pest or weed control at 280.212 g/ha was found to be 100% with velvetleaf; 100% in the experiment on barnyardgrass; 100% in the experiment on yellow nutsedge; 90% with annual morning glory; 100% in the experiment with yellow foxtail; 100% in the experiment with jimsonweed. In addition, the pest or weed control at 280.212 g/ha in the experiment on johnson grass amounted to 90%. Also, the plant injury at 280.212 g/ha with corn came to 80%; with rice, 100%; in the experiment with wheat, 90%; in the experiment on sugar beet, 100%; in the experiment with sorghum, 100%; in the experiment on soybean it was 90%. In the experiment on cotton, the plant injury at 280.212 g/ha came to 100%.
Turning to `CSc1nc2nc(S(=O)(=O)Nc3c(Cl)cccc3Cl)nn2cc1C` [Compound 235], the pest or weed control at 280.212 g/ha amounted to 20% with velvetleaf; 0% in the experiment on yellow nutsedge; 90% in the experiment on annual morning glory; 20% in the experiment on yellow foxtail; 50% with jimsonweed; 0% in the experiment on johnson grass. In addition, the plant injury at 280.212 g/ha is 50% in the experiment on corn; 10% in the experiment with rice; 50% with wheat; 50% in the experiment with sugar beet; 50% in the experiment on sorghum; 0% in the experiment on soybean. The plant injury at 280.212 g/ha in the experiment with cotton was found to be 50%.
For the molecule `Cc1cc(C)n2nc(S(=O)(=O)Nc3c(Cl)cccc3COCc3ccccc3)nc2n1` [Compound 92], the “% NH4-N Remaining After 2 Weeks Incubation” value in experiment [1] (0.06 ppm) is recorded as 0%; in [1] (0.25 ppm) it was 4%; in experiment [1] (1 ppm), 0%; in [1] (4 ppm) it was 25%.
Consider `Cc1cc(C)n2nc(S(=O)(=O)Nc3ccccc3C(=O)N(C)C)nc2n1` [Compound 42], for which the “% NH4-N Remaining After 2 Weeks Incubation” value was 0% in experiment [1] (0.01 ppm), 0% in experiment [1] (0.1 ppm), 8% in experiment [1] (1 ppm) and 68% in experiment [1] (10 ppm).
As for `CSc1cccc(C)c1NS(=O)(=O)c1nc2nc(C)cc(C)n2n1` [Compound 70], the “% NH4-N Remaining After 2 Weeks Incubation” value in experiment [1] (0.06 ppm) was 0%; in [1] (0.25 ppm), 29%; in [1] (1 ppm), 69%; in experiment [1] (4 ppm) it was 87%.
Regarding `CSc1cccc(C)c1NS(=O)(=O)c1nc2nc(C)ccn2n1` [Compound 150], the “% NH4-N Remaining After 2 Weeks Incubation” value in experiment [1] (0.06 ppm) was 83%; in experiment [1] (0.25 ppm), 74%; in experiment [1] (1 ppm), 91%; in experiment [1] (4 ppm), 93%.

The values above are taken from patent US4740233A, “Substituted 1,2,4-triazolo[1,5-a]-pyrimidine-2-sulfonamides and compositions and methods of controlling undesired vegetation and suppressing the nitrification of ammonium nitrogen in soil” (The Dow Chemical Company, priority 1986, dated 1988).
